Results published in ChEMBL document CHEMBL1201862, “PubChem BioAssay data set” (2004).
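Tested at 5 concentrations; 48 h exposure; 96-well plates; endpoints linearly interpolated, else capped at highest concentration. GI50 is the concentration that inhibits growth by half.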 The source made the active and inactive calls. Cut-off read from the data, not from the text of the source: active = GI50 up to about 1.1 µM and inactive = higher.

Key:
Assay in all cases: NCI tumour cell line growth inhibition, 48 h
[1] = tested on: DMS-114
[2] = tested on: DMS-273
[3] = tested on: HOP-18
[4] = tested on: M19-MEL
[5] = tested on: SNB-78
[6] = tested on: XF498
[7] = tested on: Hs-578T
[8] = tested on: DLD-1
[9] = tested on: RXF 631

Compound	GI50 [1]	GI50 [2]	GI50 [4]	GI50 [7]	other results
Cc1cc(N)c(C)c2c1[nH]c1ccc(O)cc12	> 10 µM (inactive)	> 100 µM (inactive)	61 µM (inactive)		GI50 [3]: > 100 µM (inactive); GI50 [5]: > 100 µM (inactive); GI50 [6]: 56.4 µM (inactive)
O=c1c2cc(Cl)ccc2[nH]c2cc(O)cc(O)c12				> 10 µM (inactive)	
COCN1C(=O)[C@@H]2CCCN2C(=O)c2cc([N+](=O)[O-])ccc21				> 100 µM (inactive)	
O=C1OC(c2ccccc2)N/C1=C\c1ccc2c(c1)OCO2 (centres undefined)				72.9 µM (inactive)	
O=C(COc1ccc(Cl)c(Cl)c1)Nc1ccc[n+](Cc2ccc(S(=O)(=O)F)c(Cl)c2)c1				> 100 µM (inactive)	
CCc1c2c(cc3c1CC1(C3)Cc3cc4c(c(C(=O)OC)c3C1)CCCC4)CCCC2 (centres undefined)				19.2 µM (inactive)	
CCOC(=O)C(=O)Nc1c(N(CC)CC)n2ccccc2nc1=O	> 100 µM (inactive)	> 100 µM (inactive)	> 100 µM (inactive)		GI50 [8]: > 100 µM (inactive); GI50 [9]: > 100 µM (inactive); GI50 [5]: > 100 µM (inactive); GI50 [6]: > 100 µM (inactive)
CCCCCC1=CC(=O)C1(Cl)Cl				19 µM (inactive)	
Cc1cn(CCOCCOC(=O)NC(CCCNC(=N)N)C(=O)O)c(=O)[nH]c1=O (centres undefined)				> 100 µM (inactive)	
CC(=O)Oc1ccc(/C=C/C(=O)OCCOC(=O)/C=C/c2ccc(OC(C)=O)c(OC(C)=O)c2)cc1OC(C)=O				16.8 µM (inactive)	
CCCCC1Cc2ccccc2-c2nc3ccccc3n21 (centres undefined)				17.1 µM (inactive)	
Cc1c(-c2nnc(-c3ccccc3)o2)c(=O)n(-c2ccccc2)n1C	> 100 µM (inactive)	> 100 µM (inactive)	> 100 µM (inactive)		GI50 [8]: > 100 µM (inactive); GI50 [3]: > 100 µM (inactive); GI50 [5]: > 100 µM (inactive); GI50 [6]: > 100 µM (inactive)
On1c(-c2ccccc2)c(-c2ccccc2N2CCCC2)c2ccccc21	47.2 µM (inactive)	> 100 µM (inactive)	> 100 µM (inactive)		GI50 [8]: > 100 µM (inactive); GI50 [3]: > 100 µM (inactive); GI50 [5]: > 100 µM (inactive); GI50 [6]: > 100 µM (inactive)
N=C(N)Nc1ccc(-c2ccc(NC(=N)N)cc2)cc1				19.4 µM (inactive)	
CC(=O)O[C@H]1C(=O)[C@@]2(C)C(C(OC(=O)c3ccccc3)[C@]3(O)CC(OC(=O)C(O)C(NC(=O)c4ccc(C)cc4)c4ccccc4)C(C)=C1C3(C)C)[C@]1(OC(C)=O)CO[C@@H]1C[C@@H]2O (some centres undefined)	< 0.0025 µM (active)	< 0.0025 µM (active)	< 0.0025 µM (active)		GI50 [8]: 0.0661 µM (active); GI50 [5]: 4.02 µM (inactive); GI50 [6]: < 0.0025 µM (active)
CC(=O)O[C@H]1CCC2[C@@H]3CCC4NC(=O)C(C#N)C[C@]4(C)C3CC[C@@]21C (some centres undefined)				3.96 µM (inactive)	

Compound	GI50 [1]	GI50 [2]	GI50 [4]	GI50 [7]	other results
CCOC(=O)c1cc(-c2ccn(C(C)=O)c2)c(-c2cc(C)co2)[nH]1				> 100 µM (inactive)	
CC[n+]1c(/C=C/c2cc(C(=O)OC)n3c2sc2ccccc23)sc2ccccc21	19.2 µM (inactive)	17.6 µM (inactive)	18.9 µM (inactive)		GI50 [6]: 13.3 µM (inactive)
CC(=O)OCC1OC(Sc2ccccn2)C=CC1OC(C)=O (centres undefined)	> 100 µM (inactive)	> 100 µM (inactive)	> 100 µM (inactive)		GI50 [8]: > 100 µM (inactive); GI50 [3]: > 100 µM (inactive); GI50 [6]: > 100 µM (inactive)
CCOC(=O)CNc1c(OCc2ccccc2)c(=O)c1=O				> 100 µM (inactive)	
COc1cccc(/C=N/[N+](C)(C)C)c1O				> 10 µM (inactive)	
Cc1cn(C2OC(CO[Si](C)(C)C(C)(C)C)C(N(C)O[Si](C)(C)C(C)(C)C)C2[Se]c2ccccc2)c(=O)[nH]c1=O (centres undefined)				2.67 µM (inactive)	
Cc1ccc(NC(=O)CC2C(=O)Nc3ccccc3S2(=O)=O)cc1C (centres undefined)	> 100 µM (inactive)	> 100 µM (inactive)	> 100 µM (inactive)		GI50 [8]: > 100 µM (inactive); GI50 [9]: > 100 µM (inactive); GI50 [5]: > 100 µM (inactive); GI50 [6]: > 100 µM (inactive)
Nc1nc(N)c2ncn(Cc3ccccc3CCl)c2n1				> 100 µM (inactive)	
CCOP(=O)(CN1CCNCCNCC1)OCC				> 100 µM (inactive)	
CC(=O)O[C@@H]1C=C(C)[C@H](CBr)O[C@@]2(C)CC[C@H](Br)C(C)(C)[C@H]12				> 100 µM (inactive)	
CN1C(c2ccccc2)CC(O)CC1c1ccccc1 (centres undefined)	> 100 µM (inactive)	> 100 µM (inactive)	> 100 µM (inactive)		GI50 [8]: > 100 µM (inactive); GI50 [5]: > 100 µM (inactive)
O=C(/C=C/c1ccccc1)c1cc(C(=O)/C=C/c2ccccc2)c(O)cc1O				26.4 µM (inactive)	
O/N=C1\C/C(=N\O)c2c(Br)sc(Br)c21				0.216 µM (active)	
COc1cc(-c2[nH]ccc2Cl)oc1C1=C2N=C3C=C2C(C(C)C)C1CCCCCCCC3 (centres undefined)	0.485 µM (active)	0.589 µM (active)	0.603 µM (active)	0.253 µM (active)	GI50 [8]: 0.975 µM (active); GI50 [3]: 0.332 µM (active); GI50 [5]: 2.83 µM (inactive); GI50 [6]: 1.38 µM (inactive)
CCC(=O)O[C@H]1CC[C@H]2[C@@H]3CCC4=C/C(=N/NC(=O)c5cccc6c(=O)c7ccccc7[nH]c56)CC[C@]4(C)[C@H]3CC[C@]12C				> 25 µM (inactive)	
